Source: article PMC7749516, “Safety and nonclinical and clinical pharmacokinetics of PC945, a novel inhaled triazole antifungal agent” (Pharmacology Research & Perspectives, 2020)
Converted amounts (≈) assume the structure as drawn. “And” between values parts separate entries of the source, which are not always exact repeats. Identical values can stand only once.

Key:
A. fumigatus strains = system: A. fumigatus strains; parameters: method as in PMID 28223388; conditions: EUCAST method, 96 clinically isolated A. fumigatus strains; cited from earlier work
[1] = Toxicokinetics/toxicity in rats, daily 2-hour inhalation for 14 days (plasma); conditions: for Ro (accumulation ratio): AUC0‐24h (Day14)/AUC0‐24h (Day 1)
Excerpt: Each dose was inhaled over a 2‐hour period once daily for 14 days.
Lower limit of quantification of the assay was 10 pg/mL for clinical samples and 100 pg/mL for rat and dog plasma samples.

[2] = female rats, Day 14 of inhaled 2.0 mg/kg/day
[3] = female rats, Day 14 of inhaled 7.1 mg/kg/day
[4] = female rats, Day 14 of inhaled 16.6 mg/kg/day
[5] = female rats, single inhaled dose 2.0 mg/kg (Day 1)
[6] = female rats, single inhaled dose 7.1 mg/kg (Day 1)
[7] = female rats, single inhaled dose 16.6 mg/kg (Day 1)
[8] = male rats, Day 14 of inhaled 2.0 mg/kg/day
[9] = male rats, Day 14 of inhaled 7.1 mg/kg/day
[10] = male rats, Day 14 of inhaled 16.6 mg/kg/day
[11] = male rats, single inhaled dose 2.0 mg/kg (Day 1)
[12] = male rats, single inhaled dose 7.1 mg/kg (Day 1)
[13] = male rats, single inhaled dose 16.6 mg/kg (Day 1)

## Cc1cc(N2CCN(c3ccc(C(=O)Nc4ccc(F)cc4)cc3)CC2)ccc1OC[C@@H]1CO[C@@](Cn2cncn2)(c2ccc(F)cc2F)C1 [PC945]
A. fumigatus strains
  Geometric mean minimum inhibitory concentration (MIC): 0.17 mg/L
  MIC50: 0.125 mg/L (≈ 0.183 µM)
  MIC90: 1.0 mg/L and 1 mg/L
[1]; female rats, 2.0 mg/kg/day
  Ro (accumulation ratio): 1.84
[1]; female rats, 16.6 mg/kg/day
  Ro (accumulation ratio): 2.53
[1]; [2]
  AUC0‐24h: 0.336 µg·h/mL
  C max: 0.0192 µg/mL
[1]; [3]
  AUC0‐24h: 0.749 µg·h/mL
  C max: 0.0504 µg/mL
[1]; [4]
  AUC0‐24h: 1.85 µg·h/mL
  C max: 0.0923 µg/mL
[1]; [5]
  AUC0‐24h: 0.183 µg·h/mL
  C max: 0.0105 µg/mL
[1]; [6]
  AUC0‐24h: 0.416 µg·h/mL
  C max: 0.0248 µg/mL
[1]; [7]
  AUC0‐24h: 0.731 µg·h/mL
  C max: 0.0413 µg/mL
[1]; male rats, 2.0 mg/kg/day
  Ro (accumulation ratio): 1.96
[1]; [8]
  AUC0‐24h: 0.202 µg·h/mL
  C max: 0.0123 µg/mL
[1]; [9]
  AUC0‐24h: 0.424 µg·h/mL
  C max: 0.0237 µg/mL
[1]; [10]
  AUC0‐24h: 1.14 µg·h/mL
  C max: 0.0769 µg/mL
[1]; [11]
  AUC0‐24h: 0.103 µg·h/mL
  C max: 0.0073 µg/mL
[1]; [12]
  AUC0‐24h: 0.217 µg·h/mL
  C max: 0.0158 µg/mL
[1]; [13]
  AUC0‐24h: 0.426 µg·h/mL
  C max: 0.026 µg/mL
[1]; rat, highest dose tested
  Margin over the clinical AUC following a 5 mg dose: 12 fold
[1]; rats, after the 2-hour inhalation
  Time of C max after a single dose: 4 h
[1]; rats, highest dose tested
  Systemic toxicity: No systemic toxicity
[1]; rats, single 2-hour inhaled dose (Day 1)
  Time of C max after the start of dosing: 6 h
